Data set [1] concerns VEGF-induced angiogenesis. The data set is described as follows: effect of bioactive lipids on angiogenesis induced by VEGF in vitro (FIG. 10). The class given is cell-based. Conditions: positive test control taken as 100%. How it is done:
C=Control; T=positive test control taken as 100%; RSv=Resolvin E1; PRt=Protectin D1; MaR=Maresin; L+R+P+M=LXA4=resolvin D1+Protectin D1+Maresin in 1:1:1:1 ratio.
(§1) In another study, this was similar to the study given in Examples 5 and 6, except that in this instance different bioactive lipids singly and in combination were tested in combination with or without anti-VEGF antibody. Thus, in this study, experimental animals received LXA4, resolvin E1, resolvin D1, protectin D1, maresin 1 or a combination of LXA4+resolvin E1+protectin D1+maresin 1 (in the ratio of 1:1:1:1)±anti-VEGF antibody were given with appropriate control groups. In this study, dose of bioactive lipids used was 5 ng, 10 ng, 15 ng, 20 ng, 50 ng, 100 ng, 200 ng, 500 ng, 1 μg, 5 μg, or 25.0 μg once in 4 weeks for 3 months. […] A summary of the results obtained with bioactive lipids on angiogenesis (FIG. 10) in vitro; on STZ-induced cytotoxicity to vascular endothelial cells (FIG. 11); on LPS-induced IL-6 and TNF-α secretion by human macrophages in vitro (FIG. 12); on PGE2 and VEGF secretion by LPS stimulated ARPE cells in vitro (FIG. 13); leukocyte migration and adherence to endothelial cells in vitro (FIG. 14); and BDNF secretion by ARPE cells stimulated by LPS (FIG. 15) are given in respective figures.

In data set [2] the test system is vascular endothelial cells. Kind of data set: STZ-induced cytotoxic action on vascular endothelial cells in vitro (FIG. 11). Conditions: STZ cytotoxicity taken as 100%. The class given is cell-based. The procedure:
C=Control; STZ=Streptozotocin-induced cytotoxicity taken as positive control taken as 100%; RSv=Resolvin E1; PRt=Protectin D1; MaR=Maresin; L+R+P+M=LXA4=resolvin D1+Protectin D1+Maresin in 1:1:1:1 ratio.
as §1

In a further data set the test system is human macrophage cells. Kind of data set: production of IL-6 and TNF-α by human macrophage cells stimulated with LPS in vitro (FIG. 12). Format: cell-based. The settings on record: LPS stimulated increase taken as 100%. The procedure: C=Control; LPS stimulated increase in IL-6 and TNF-α production taken as 100%; RSv=Resolvin E1; PRt=Protectin D1; MaR=Maresin; L+R+P+M=LXA4=resolvin D1+Protectin D1+Maresin in 1:1:1:1 ratio.
as §1

Data set [3] deals with adult human retinal pigment epithelial cells, ARPE 19 cells. Kind of data set: production of PGE2 and VEGF by ARPE 19 cells exposed to LPS (FIG. 13). Format: cell-based. The settings on record: LPS positive control taken as 100%. The procedure: C=Control; LPS=Positive control taken as 100%; RSv=Resolvin E1; PRt=Protectin D1; MaR=Maresin; L+R+P+M=LXA4=resolvin D1+Protectin D1+Maresin in 1:1:1:1 ratio.
as §1

For data set [4], the system named is leukocyte migration and adherence. Kind of data set: leukocyte migration and adherence stimulated by LPS in vitro (FIG. 14). The class given is cell-based. The settings on record: LPS positive control taken as 100%. The procedure:
C=Control; LPS=positive control taken as 100%; RSv=Resolvin E1; PRt=Protectin D1; MaR=Maresin; L+R+P+M=LXA4=resolvin D1+Protectin D1+Maresin in 1:1:1:1 ratio.
as §1

Data set [5] deals with experimental animals with DR, AMD, DME, retinopathy of prematurity. Kind of data set: intravitreal injection in experimental animals with DR, AMD, DME, retinopathy of prematurity (Examples 5-7, FIG. 16). Format: in vivo. The settings on record: for regression of DR, AMD, DME, retinopathy of prematurity: all doses.
Excerpt: The degree of DR in control is taken as 100% which received only the vehicle. All bioactive lipids are able to suppress/reverse/arrest DR to a significant degree. […] Similar results were obtained with AMD, DME and retinopathy of prematurity. AVA=Anti-VEGF antibody; LRPM=Lipoxin A4+resolvin+protectin+maresin; AVA+LRPM=Anti-VEGF antibody+Lipoxin A4+resolvin+protectin+maresin.
[…] with DR, AMD, DME, retinopathy of prematurity (each group consisting of 10 animals: total 40 animals) were treated by direct intravitreal injection of LXA4 free acid form of composition according the examples 1-4 in doses ranging from 10.0 μg/day once in a week for 4 weeks.
In another study, this was similar to the study given in Example 5, except that in this instance different bioactive lipids singly and in combination were tested. Thus, in this study, experimental animals received LXA4, resolvin E1, resolvin D1, protectin D1, maresin 1 or a combination of LXA4+resolvin E1+protectin D1+maresin 1 (in the ratio of 1:1:1:1) were given with appropriate control groups. In this study, different doses of bioactive lipids were used either 5 ng, 10 ng, 15 ng, 20 ng, 50 ng, 100 ng, 200 ng, 500 ng, 1 μg, 5 μg or ranging from 10.0 μg to 100.0 μg per week for 4 weeks; once in 4 weeks for 3 months.
as §1

Data set [6] is described as follows: effect of ethanol and albumin on stability of LXA4 in solution in vitro (Example 8, FIGS. 17-18). The class given is physicochemical. The procedure: C=Control (100%); Concentration of LXA4 used in the test system is 10 μg to which different concentrations of albumin is added and after a specific period of incubation the concentration of LXA4 present in the solution is tested. It is seen that when the % of albumin exceeded 0.01%, the stability of LXA4 is decreased. […] The test system used: LXA4 is dissolved in 0.01% ethanol (pH 7.4) at 37° C. to which different concentrations of albumin is added and at the end of incubation time the concentration of LXA4 present is tested to know whether albumin would influence the stability of LXA4 in the solution.
Concentration of LXA4 tested 100 ng. […] C=Control (100%) (expected). Various doses of albumin were added to LXA4 solution in saline/PBS/ethanol and the stability of LXA4 was tested at the end of different periods of incubation in days. Results were best when ethanol concentration in the solution is between 0.01 to 0.0001% and albumin concentration is between 0.01 to 0.0001%.
The effect of albumin as an exemplary stabilizing agent in compositions of bioactive lipids was tested as follows: To 250 ng of LXA4 dissolved in a solution of saline/PBS with or without 0.01% ethanol was added different concentrations of albumin and after a specific period of incubation the concentration of LXA4 present in the solution was tested.

A short description of data set [7]: production of other bioactive lipids (observation). The text has this:
Thus, one bioactive lipid enhances the production and action of other bioactive lipids. In a surprise observation, inventor noted that LXA4 and other bioactive lipids function as autocrine factors enhancing their own production.

Data set [8] has as its system experimental animals with DR, AMD, DME, retinopathy of prematurity. The data set is described as follows: intravitreal injection in experimental animals with DR, AMD, DME, retinopathy of prematurity (Examples 5-7, FIG. 16). Format: in vivo. Conditions: Example 5; 5 ng to 100.0 μg per week for 4 weeks; once in 4 weeks for 3 months; all doses tested.
The subject of a further data set is ARPE 19 cells. The settings on record: LPS induced ARPE 19 cells, cited from earlier work.
Data set [9] relates to adult human retinal pigment epithelial cells, ARPE 19 cells. The data set is described as follows: production of BDNF by ARPE 19 cells exposed to LPS (FIG. 15). Format: cell-based. The settings on record: saline control taken as 100%. The procedure:
C=Saline control taken as 100%; LPS=LPS-induced decrease in BDNF production; RSv=Resolvin E1; PRt=Protectin D1; MaR=Maresin; L+R+P+M=LXA4=resolvin D1+Protectin D1+Maresin in 1:1:1:1 ratio.
as §1

A further data set deals with neovascularization. Conditions: retina; literature; cited from earlier work.
Where [10] appears, read: Example 6, lipids singly and in combination, 5 ng to 100.0 μg per week for 4 weeks, once in 4 weeks for 3 months.
Where [11] appears, read: Example 7, with or without anti-VEGF antibody, 5 ng to 25.0 μg once in 4 weeks for 3 months.

Where two headings read alike, the source gives them in different places.

For the molecule `CCCCC[C@H](O)/C=C/C=C\C=C\C=C\[C@@H](O)[C@@H](O)CCCC(=O)O` [LXA4, lipoxin A4], in data set [1], the “suppression of VEGF-induced angiogenesis” value is listed as “most effective”. For the same molecule, the “cytoprotective action against STZ-induced cytotoxic action” value in [2] was “most effective”. In addition, in the data set with human macrophage cells, the “production of IL-6 and TNF-α” value was “most effective”. Moreover, the “production of PGE2 and VEGF” value in [3] was “most potent”. Moreover, the “leukocyte migration and adherence” value in data set [4] is given as “most potent”. Also, the “reduction in the degree of DR, AMD, DME, and retinopathy of prematurity” value in [5] (Example 5, direct intravitreal injection, 10.0 μg/day once in a week for 4 weeks, all 40 animals) is recorded as “significant reduction”. Further, the “regression of DR, AMD, DME, retinopathy of prematurity” value (“regression of DR, AMD, DME” below) in [5] (setting [10]), in [5] (setting [11]) and in [8] was “substantial regression” throughout. In addition, the “stability of LXA4” value in data set [6] (Example 8, 250 ng LXA4 in saline/PBS, albumin between 0.01 to 0.0001% compared to LXA4 concentration) was “optimum”; in data set [6] (Example 8, ratio LXA4/albumin 0.01% to 0.0001%, in the presence of 0.01% ethanol), “more stable”; in data set [6] (FIG. 17, albumin between 0.01% to 0.001%, LXA4 10 μg in 0.01% ethanol, pH 7.4, 37° C.), “stable and active”; in data set [6] (FIG. 17, albumin exceeded 0.01%, LXA4 10 μg in 0.01% ethanol, pH 7.4, 37° C.), “decreased”. Also, the “stability of LXA4 at different times” value in [6] (FIG. 18, LXA4 100 ng in saline/PBS/ethanol, ethanol 0.01 to 0.0001% and albumin 0.01 to 0.0001%, incubation in days) is given as “best”. Besides, the “production of other bioactive lipids such as resolvins, protectins and maresins” value in data set [7] was “enhanced”. Also, the IL-6 levels result in the data set with ARPE 19 cells (10 nmol/L, p=0.036) is “decreased”.

Take `CC/C=C\C/C=C\C[C@H](O)\C=C/C=C/C=C/[C@H](O)C/C=C\CCC(=O)O` [Maresin, maresin 1]: in data set [9], the “production of BDNF” value is listed as “more potent than LXA4”. The “regression of DR, AMD, DME” value in data set [5] (setting [10]) and in data set [5] (setting [11]) was “substantial regression” in each case.

As to `CC/C=C\C[C@H](O)\C=C/C=C/C=C/[C@H](O)C/C=C\C/C=C\CCC(=O)O` [Neuroprotectin D1, reference compound], in the data set with neovascularization, the protection against neovascularization entry is on record as “protected against neovascularization”.

Regarding `CC/C=C\C[C@H](O)\C=C/C=C/C=C/[C@H](O)C/C=C\C/C=C\CCC(=O)O` [Protectin D1, protectin D1], the “production of BDNF” value in [9] is listed as “more potent than LXA4”. Also, the “regression of DR, AMD, DME” value in data set [5] (setting [10]) and in [5] (setting [11]) was “substantial regression” each time.

Take `CC[C@@H](O)/C=C/C=C\C[C@@H](O)/C=C/C=C/C=C\[C@@H](O)CCCC(=O)O` [Resolvin E1, resolvin E1]: the “production of BDNF” value in [9] is on record as “more potent than LXA4”. Besides, the “regression of DR, AMD, DME” value in data set [5] (setting [10]) and in data set [5] (setting [11]) was “substantial regression” each time. In addition, the protection against neovascularization result in the data set with neovascularization was “protected against neovascularization”.

`CC/C=C\C[C@H](O)/C=C/C=C\C=C\C=C\[C@@H](O)[C@@H](O)C/C=C\CCC(=O)O` [resolvin D1]: the “regression of DR, AMD, DME” value in [5] (setting [10]) and in data set [5] (setting [11]) was “substantial regression” throughout. The protection against neovascularization entry in the data set with neovascularization is “protected against neovascularization”.

B1: BDNF: brain-derived neurotropic factor (BDNF), a neurotrophin (protein, UniProt P23560 19-247, looked up)
Neurotrophic factor BDNF …: APMKEANIRGQGGLAYPGVRTHGTLESVNGPKAGSRGLTSLADTFEHVIEELLDEDQKVRPNEENNKDADLYTSRVMLSSQVPLEPPLLFLLEEYKNYLDAANMSMRVRRHSDPARRGELSVCDSISEWVTAADKKTAVDMSGGTVTVLEKVPVSKGQLKQYFYETKCNPMGYTKEGCRGIDKRHWNSQCRTTQSYVRALTMDSKKRIGWRFIRIDTSCVCTLTIKRGR
For B1, the IL-6 levels entry in the data set on ARPE 19 cells (500 pg, p=0.0002) was “decreased”.
